One substance from patent US10758639B2, “Methods for the treatment of peri-implantitis” (POLYPID LTD., priority 2014, dated 2020) can be followed below.

Where “and” joins values, the source holds several entries; their conditions need not be identical. Identical values can stand only once.

The subject of the test is Staphylococcus aureus biofilm (ATCC 29213). Description: MBEC P&G assay: eradication of an established (preformed) biofilm. The test is classed as cell-based. The conditions noted are these: for Log Reduction (Log R): vs. GC (growth control). The method, then: The effectiveness of tri-calcium phosphate granules coated with a matrix composition according to embodiments of the invention in eradicating established biofilm was measured using the MBEC™ (Minimum Biofilm Eradication Concentration) Physiology and Genetics Assay.
MBEC™ Test Method Overview: MBEC™ test method specifies the operational parameters required to grow and treat different bacterial biofilms in a high throughput screening assay. The assay device consists of a plastic lid with ninety-six (96) pegs and a corresponding receiver plate with ninety-six (96) individual wells that have a maximum 200 μL working volume. Biofilm is established on the pegs in a batch culture based model (i.e., no flow of nutrients into or out of an individual well) with gentle mixing. The established biofilm is transferred to a new receiver plate for disinfectant efficacy testing.
Test Organisms: Staphylococcus aureus (an osteomyelitis-related strains); source: ATCC 29213; Dilution/Challenge Media: 1,000×TSB+10% human serum 24 hrs; Growth Media/agar: Tryptic Soy Broth/Tryptic Soy agar for 24 hrs Aerobic cond.
TEST METHOD overview: The experimental process for high-throughput antimicrobial susceptibility testing using the hydroxyapatite coated MBEC™ P&G assay. This standard protocol was broken into a series of small steps, each of which is detailed in the sections below.
1. Culture/Inoculum Preparation:
Using a cryogenic stock (at −70° C.), a first sub-culture of Staphylococcus aureus was streaked out on OSA (organism specific agar). The plates were incubated at appropriate growth conditions for 20±2.0 hours and further stored at 4° C.
A second sub-culture taken from the first sub-culture was streaked out on OSA. The plates were incubated at appropriate growth conditions for 20±2.0 hours. An isolated colony from the second sub-culture was aseptically removed from the OSA plate and inoculated into 50 mL of sterile bacterial liquid growth broth, followed by incubation appropriate growth conditions for 20±2.0 hours (at 150 rpm).
The inoculum was adjusted to an approximate cell density of 10^6 CFU/mL by diluting in OSB according to table 1.
Samples (100 μL) of the diluted organism were used for an inoculum check by serially diluting and spot plating on OSA in triplicate.
Preparation of the Challenge Plate:
150 μL of the remaining diluted organism were placed in each of the corresponding wells of an MBEC™ P&G device except the sterility controls (Table 5). The device was placed on an orbital shaker (110 RPM) in a humidified incubator at 37±1° C.
Antimicrobial Challenge for Preformed Biofilm:
The biofilm formed on the lid of the MBEC device was rinsed by dipping the lid into saline (˜30 seconds) to remove planktonic cells. The lid was then put on top of the challenge plate and incubated on a rotary shaker at 110 rpm at 35±2° C. for 24±2 hours.
After incubation (specified above), planktonic cells were rinsed off the biofilm by dipping the lid into saline (˜20-30 seconds). The lid was then transferred to a neutralizer/recovery plate and put in a sonicator (˜30 minutes) to dislodge surviving biofilm.
Following sonication, 100 μL from each well of the MBEC™ plate, were put into the first 12 empty wells of the first row of a 96 well-micro titer plate and were further diluted by 10 fold down each of the 8 rows (10^0-10^7 dilution). 5 μL from each well were then used for spotting prepared OSA plates. The agar plates were incubated at 37±1° C. and counted after approximately 24-48 hours of incubation. The arithmetic mean of the number of colonies counted on the plates was calculated.
100 μL of the sterile neutralizer was added to each well of the recovery plate to top up the volume back to 200 μL. The refilled plate is incubated at 35±2° C. for 24±2 hours, after which the plates were analyzed using a plate reader.
The log density for one peg was calculated as follows:
LOG10 (CFU/peg)=LOG10 [(XB) (D)] where: X=mean CFU; B=volume plated (0.02 mL) and D=dilution. […]

For the substance Gentamicin [D], the “Average Log10 CFU/peg recoveries” value is, setting by setting: (0.5 μg) 3.48 Log10 CFU/peg; (1.0 μg) 3.21 Log10 CFU/peg; (2.0 μg) 1.69 Log10 CFU/peg; (4.0 μg) 1.31 Log10 CFU/peg; (8.0 μg) 0.00 Log10 CFU/peg; (16 μg) 0.00 Log10 CFU/peg. Moreover, for the setting “32 μg”, the “Average Log10 CFU/peg recoveries” value is given as 0.00 Log10 CFU/peg. In addition, the “Log10 CFU/peg recoveries, replicates 1-3” value was 3.90 Log10 CFU/peg and 2.90 Log10 CFU/peg and 3.64 Log10 CFU/peg (0.5 μg); 4.72 Log10 CFU/peg and 2.60 Log10 CFU/peg and 2.30 Log10 CFU/peg (1.0 μg); 2.30 Log10 CFU/peg and 0.00 Log10 CFU/peg and 2.78 Log10 CFU/peg (2.0 μg); 1.61 Log10 CFU/peg and 2.30 Log10 CFU/peg and 0.00 Log10 CFU/peg (4.0 μg); 0.00 Log10 CFU/peg (8.0 μg); 0.00 Log10 CFU/peg (16 μg). Further, the “Log10 CFU/peg recoveries, replicates 1-3” value (32 μg) amounted to 0.00 Log10 CFU/peg. Moreover, the “Log Reduction (Log R)” value is, setting by setting: (0.5 μg) 1.11 LOG10; (1.0 μg) 1.38 LOG10; (2.0 μg) 2.90 LOG10; (4.0 μg) 3.29 LOG10; (8.0 μg) 4.59 LOG10; (16 μg) 4.59 LOG10. Also, under “32 μg”, the “Log Reduction (Log R)” value amounted to 4.59 LOG10.
